Literature values as cited in patent publication US20210346497A1, “Methods of Treating Cancer” (Tesaro, Inc., priority 2018, published 2021).

What was measured:
[1] = test system: MDA-MB-436, CAPAN-1, GRANTA-519, OVCAR3, HT29, DLD-1, patient derived Ewing's sarcoma and TNBC xenograft models; conditions: BRCA-1 mutant breast, BRCA-2 mutant pancreatic, ATM-mutant mantle cell lymphoma, serous ovarian, colorectal, TNBC xenografts in mice
[2] = test system: PARP activity in various cell lines
[3] = test system: cancer cell lines silenced for BRCA-1 or BRCA-2, or carrying BRCA-1 or BRCA-2 mutations

In the case of `Cc1ccc(S(=O)(=O)O)cc1.NC(=O)c1cccc2cn(-c3ccc([C@@H]4CCCNC4)cc3)nc12` [Niraparib, (3S)-3-[4-{7-(aminocarbonyl)-2H-indazol-2-yl}phenyl]piperidine], the cell cycle arrest (tumor cell) is given as “arrest in the G2/M phase of the cell cycle”, the “antitumor activity in vivo” value [1] is given as “strong antitumor activity” and the “activity on normal human cells” value (normal human cells) is given as “weak activity”. For the same compound, the IC50 ([2]; read-out: IC50 of PARP activity in cells, PARP activity stimulated by DNA damage caused by hydrogen peroxide) was roughly 4 nM, the IC90 ([2]; read-out: inhibitory concentration at 90% of control (IC90) of PARP activity in cells, PARP activity stimulated by DNA damage caused by hydrogen peroxide) was roughly 50 nM and the anti-proliferative activity ([3]; BRCA-1/BRCA-2 silenced or mutant cancer cell lines compared to wild type counterparts) was “selective anti-proliferative activity”. For the same compound, the “consequence on cell cycle of BRCA-defective cells” value ([3]; BRCA-defective cells) was “cell cycle arrest in G2/M followed by apoptosis”.
